“Also recorded” adds a separate entry of the source.
Legend:
[1] = tested on: estrogen receptor (ER) transcription activity; assay: Reporter gene assay with ERE-Luc in menin-transfected cells in the presence of tamoxifen; format: cell-based, human; settings: MCF-7 cells co-transfected with menin expression vector and ERE-Luc; 1 μM tamoxifen; 24 hours
Procedure: The cells were cultured in DMEM (ICN) medium to which 10% fetal calf serum (ICN) was supplemented.
Full-length menin cDNA was amplified by RT-PCR, and inserted into an expression vector, pcDNA3 (Invitrogen). The menin cDNA was identified by sequencing. The mutation (569delC) was introduced with a site-directed mutagenesis kit (Promega) to produce a variant menin.
The menin expression vector and the reporter gene (ERE-Luc) were co-transfected into MCF-7 cells according to the liposome method. Similarly, the menin expression vector, CMV-ERA and the reporter gene (ERE-Luc) were co-transfected. into COS-7 cells according to the liposome method. After culturing for 24 hours, the proteins were extracted from cells and assayed for their luciferase activity. The extracted proteins were measured for their protein concentration and β-galactosidase activity wherein β-galactosidase was co-transfected and the introduction efficiency was calibrated. Similar experiments were carried out with addition of 1 μM tamoxifen to the same system.

breast cancer [2] = settings: ER-positive patients, tamoxifen administered for 5 years; cited from earlier work
breast cancer [3] = assay: Menin expression in breast cancer tissues (immunohistological staining) versus recurrence under tamoxifen; format: in vivo, human
Procedure: Thin slices (4 μm) were prepared from breast cancer tissues embedded with paraffin. After removing paraffin, the microwave treatment was carried out (5 min×3) in citrate buffer. After cooling at room temperature, the endogenous peroxidase activity was inhibited using an aqueous 0.3% hydrogen peroxide solution. Next, blocking was performed with 6 drops of 5% bovine albumin (Sigma) for one hour, and then the anti-menin antibody (Santa Cruz) (first antibody capable of immunohistological staining) was reacted overnight (8 hours). After washing, the second antibody and 6 drops of Envision+ (Dako) wherein HRP was conjugated with polymers were reacted for one hour.
After 100 mg of a coloring agent, DAB (Dojindo), was thoroughly mixed in 150 ml of PBS, the slice was immersed in a solution containing 75 μl of 30% hydrogen peroxide (0.5 μl/ml) for 1 min, and immediately immersed into and washed with tap water. After the dehydration treatment, the slice was enclosed with a cover glass, and observed by a microscopy. The specimen where menin-positive cells with brown-colored nuclei were 50% or more of total cells was determined to be menin-positive.

## CC/C(=C(\c1ccccc1)c1ccc(OCCN(C)C)cc1)c1ccccc1 [tamoxifen]
[1]
  inhibition of luciferase activity (ER transcription activity): not inhibited; also recorded: no suppressive effect
Breast cancer [2]
  recurrence rate relative to that in non-administered patients: 50%
Breast cancer [3]; 5 menin-positive cases, tamoxifen administered in 3 cases
  cancer recurrence: 4 cases
Breast cancer [3]; menin-negative patient cases (3 of 10) administered tamoxifen
  cancer recurrence: no recurrence

Reference: patent publication US20040053345A1, “Marker for probing the therapeutic efficacy of drugs” (priority 2002, published 2004)
